Here are results for one compound from publication PMC6272869, “Simultaneous Determination of Multiple Components in Guanjiekang in Rat Plasma via the UPLC–MS/MS Method and Its Application in Pharmacokinetic Study” (Molecules, 2016).

Broadly, the AUC(0-inf) is total exposure, with the tail of the curve extrapolated. What is called AUC(0-t) is the area under the concentration-time curve up to a stated or last time point. Read a low AUC(0-t) as less exposure.

Series [1] can be described thus: Pharmacokinetic study in rats after single oral administration of GJK (UPLC-MS/MS of plasma). The following applies: Sprague-Dawley, in vivo, single oral GJK 24 g/kg. The class given is in vivo, Sprague–Dawley rats. The protocol:
Chromatographic analyses were performed using an Agilent 1290 series UPLC system (Agilent Technologies, Santa Clara, CA, USA) equipped with a binary pump, an online degasser, an auto plate sampler, and a thermostatically controlled column compartment. The determination was carried out at 30 °C on a Waters Acquity UPLC C18 column (100 mm × 2.1 mm, […], Waters, Milford, MA, USA). The mobile phase consisted of 0.1% formic acid (A) and acetonitrile (B) using a gradient elution of 10%–34% B at 0–6 min, 34%–80% B at 6–10 min, 80% B at 10–12 min, 10% B at 12–15 min, and the re-equilibration time of gradient elution was 1 min. The sample injection volume was 5 µL, and the flow rate was 0.35 mL/min. The MS detection was performed using an Agilent 6460 Triple Quadrupole MS (Agilent Technologies) equipped with an electrospray ionization (ESI) source. […] Other parameters were as follows: drying gas (N2) flow rate, 11.0 L/min.
Plasma samples (50 µL) were thawed on ice and mixed with 200 µL of IS (20.0 ng/mL) via vortexing for 1 min. Then, the mixture was centrifuged at 13,500 rpm for 15 min to separate the precipitated protein at 4 °C. The supernatant was transferred into a clean Eppendorf tube and evaporated to dryness under a stream of nitrogen. The residues were reconstituted with 50 µL of water–methanol (50:50, v/v), vortexed and centrifuged at 13,500 rpm for 15 min. Then, the supernatants were injected into the UPLC–MS/MS for analysis.
Sprague–Dawley rats (200–250 g) were obtained from the Center of the Chinese University of Hong Kong and were kept in an environmentally controlled room (temperature: 25 ± 2 °C, humidity: 50% ± 5%, 12 h dark-light cycle) for at least 7 days before the experiments. Prior to the experiments, the animals were fasted for 24 h with water ad libitum. All protocols of animal experiments were approved in accordance with the regulations of the Experimental Animal Administration issued by the Macau University of Science and Technology.
The blood samples (100 µL) were individually collected from the caudal vein into heparinized tubes before administration, and 5, 10, 15, 30, 45, 60, 90, 120, 240, 360, 480, 720 and 1440 min after administration, and then immediately centrifuged at 4500 rpm for 15 min. […] The main PK parameters, including the maximum plasma concentration (Cmax), time to reach Cmax (Tmax), half-life time (T1/2), area under the curve (AUC 0–t and AUC 0–∞) and mean residence time (MRT), were calculated via the non-compartment model using the pharmacokinetic software, PK Solutions 2.0 (Summit Co., Montrose, CO, USA).

Series [2] relates to NLRP3-activated ASC oligomerization. On the set-up: method as in PMID 25210146. Particulars: cited from earlier work.
The test system of series [3] is NLRP3-dependent interleukin (IL)-1β production. On the set-up: method as in PMID 25210146. Particulars: cited from earlier work.
A short description of series [4]: Stability of the analytes in rat plasma under different storage conditions (QC samples). Format: in vitro ADME. Particulars: n = 3; for Remaining (%) / remaining at 4 h / remaining at 360 h: rat plasma; for Remaining (%): freeze–thaw cycles (three); for remaining at 24 h / remaining at 4 h / remaining at 360 h: rat, plasma; for remaining at 24 h: extracted plasma QC samples in auto-sampler, 4 °C for 24 h; for remaining at 4 h: 25 °C for 4 h; for remaining at 360 h: at −70 °C for 15 days. How it is done: The stability of the seven compounds in rat plasma was assessed by analyzing the QC samples at three concentrations under different sample storage conditions and processing procedures. Short-term stability was assessed by analyzing the QC samples that were kept at room temperature for 4 h, which exceeded the routine sample preparation time. […] Freeze-thaw stability was investigated after three freeze (−40 °C) and thaw (room temperature) cycles. Post-preparation stability was assessed by analyzing the extracted QC samples that were kept in the auto-sampler at 4 °C for […]. All stability testing QC samples were evaluated using the calibration curve of the freshly prepared samples.

Series [5] relates to toll-like receptor 4 (TLR4)/MD2 complex. On the set-up: method as in PMID 22422925. Particulars: cited from earlier work.

Turning to `O=C(/C=C/c1ccc(O)cc1)c1ccc(O)cc1O` [Isoliquiritigenin, isoliquiritigenin], the AUC(0-inf) in series [1] (rat plasma, n = 6, AUC0–t extrapolated to infinity, mean ± S.D.) was 2750 ng·h/mL. Further, the half-life in series [1] (rat plasma, n = 6, mean ± S.D., non-compartmental, read-out: T1/2z (terminal elimination half-life)) is 4.88 ± 0.8 h. Besides, the Cmax in series [1] (rat plasma, n = 6, mean ± S.D., read-out: Cmax (maximum plasma concentration)) turned out to be 337 ± 103 ng/mL. Besides, in series [1] (rat plasma, n = 6, mean ± S.D., read-out: MRT0–t (mean residence time) (converted)), the MRT last is 7.75 h. The same compound gave an AUC(0-t) in series [1] (rat plasma, n = 6, zero to last sampling time, mean ± S.D.) of 2650 ng·h/mL. Also, in series [1] (rat, po, 24 g/kg, n = 6, median (minimum, maximum), read-out: Tmax (time to reach peak concentration) (converted)), the Tmax was 3 h. Further, in series [2], the “Effect on NLRP3-activated ASC oligomerization” value is “inhibit NACHT, LRR and PYD domains-containing protein 3 (NLRP3)-activated apoptosis-associated speck-like protein (ASC) oligomerization”. For the same compound, the “Concentration that inhibits NLRP3-dependent IL-1β production” value in series [3] (at both the priming step and the activation step) is given as 1 µM. Moreover, the “Concentration that inhibits NLRP3-dependent IL-1β production, converted to mass concentration” value in series [3] (printed as equal to 1 µM) is 256 ng/mL. Besides, in series [4] (high QC concentration), the “Remaining (%)” value is listed as 105.2%, the fraction remaining at 24 h stood at 102%, the share remaining at 4 h is 103% and the amount remaining at 360 h was found to be 102%. Further, in series [4] (low QC concentration), the “Remaining (%)” value is given as 106.3%, the amount remaining at 24 h was 94.6%, the share remaining at 4 h was 102% and the share remaining at 360 h was 103%. In series [4] (medium QC concentration), the “Remaining (%)” value was 107.0%, the share remaining at 24 h was found to be 102%, the fraction remaining at 4 h stood at 103% and the amount remaining at 360 h was 96.2%. Moreover, in series [5], the “Effect on LPS-induced TLR4/MD2 complex signaling and NF-κB activation” value was “block lipopolysaccharides (LPS)-induced toll-like receptor 4 (TLR4)/MD2 complex signaling and nuclear factor NF-κB activation”.
